≈ marks a conversion by molar mass, not a printed value. Where two headings read alike, the source gives them in different places.
Assays:
[1] = test system: HIV-1 Ba-L in monocyte-derived dendritic cells; experiment: Infection of T cells by HIV associated to dendritic cells (DC/T assay); format: cell-based; settings: for EC50: Human immunodeficiency virus 1, Dendritic cell
Protocol: Monocyte-derived dendritic cells (MO-DC), infected with the NSI/R5 strain Ba-L at 10-3 multiplicity of infection, were cultured alone or with autologous CD4(+) T cells at a ratio 1:1 or 1:10. A dilution series of suramin was added to the MO-DC, 1 hour prior to infection and remained present during infection. After infection, cells were extensively washed and compounds were added at the same concentrations as for the pre-incubation. Medium and compounds were refreshed twice a week. After 2 weeks, HIV Ag was measured in supernatants with ELISA and EC50 values (effective conc. 50%) were calculated using linear regression (Vanham G et al, AIDS 2000, 14: 2299-2311). The results of this assay are provided herein.

[2] = test system: rabbit sperm; experiment: Rabbit contraceptive efficacy, ex-vivo sperm mixing; format: in vivo; settings: for inhibition of pregnancy rates (PR): 1 mM (1.4 mg/mL), Table 6: 0.1% (~1 mM); for Implantation Sites (Mean ± SD): 11 days post-insemination
Protocol: Semen was collected from New Zealand White (NZW) male rabbits with the aid of an artifical vagina, pooled and adjusted with a modified Tyrode's albumin lactate pyruvate (TALP) medium to 50 million motile sperm per milliliter. Ovulation was induced in females by injection of 200 IU of human chorionic gonadotropin (hCG) intravenously. Under the ex-vivo (in-vitro) mixing protocol, sperm were incubated with indicated suramin test compounds in a tube for 15 minutes at 37° C. prior to insemination (0.5 mL) as described in Anderson R. A., et al. J. Androl., 21: 862-875 (2000). […] Sperm-compound contact, in this case, took place in vivo, inside the vagina. Insemination and administration of the compound was performed with a flexible, 12 cm long polyurethane catheter. The main endpoints for both protocols were the number of implantation sites counted 11 days after insemination and pregnancy rate. Such sites were counted by visual inspection of the tubes.

[3] = test system: human sperm acrosome reaction; experiment: Acrosome reaction ionophore challenge test (ARIC); format: cell-based
Excerpt: The acrosome reaction ionophore challenge test (ARIC) was used, as described in Cummins J. M., et al., J. Androl., 12: 98-103 (1991), to measure the proportion of spermatozoa that respond to a calcium ionophore (typically, A23187), developing an acrosome reaction. More specifically, this test was used to determine whether suramin sodium affects the ionophore-induced acrosome reaction of the sperm, therefore altering the capacity of sperm to penetrate an egg. Results are expressed in percent inhibition of control (untreated sperm) acrosome reactions. 2.

[4] = test system: human vaginal cell line (VK2); format: cell-based
Protocol: Vaginal cytotoxicity was determined by 3-[4,5-dimethylthiazol-2-yl]-2,5-diphenyl tetrazolium bromide (MTT) assay and cytokine assays, both as described in Fichorova R. N. et al., J. Infect. Dis. 184(4): 418-28, 2001). The MTT assay assesses the cytotoxicity of various compounds against cell lines by plating the desired cells prior to exposure to the compounds. On the day of treatment, culture medium was carefully aspirated from the wells and replaced with fresh medium containing the test compound at various concentrations. The cells were incubated with the various compounds for 6 hours, washed with fresh medium and MTT was then added and the plates were incubated at 37° C. for a period of time sufficient to allow MTT to form formazan crystals by reacting with metabolically active cells. The formazan crystals were solubilized overnight at 37° C. in a solution containing 10% SDS in 0.01 M HCl. The absorbance of each well was measured in a microplate reader (Dynex) at 540 nm and a reference wavelength of 690 nm.

[5] = test system: Chlamydia trachomatis (serotype E/UW-5/CX); experiment: Chlamydia multiplication inhibition; format: cell-based
Protocol: Chlamydia multiplication inhibition was performed according to Cooper M. D. et al., J. Gen. Microbiol., 136: 1109-1115 (1990). Prior to experimentation, cryo-preserved Chlamydia trachomatis (serotype E/UW-5/CX) were quickly thawed (37° C.) and suspended by mild sonication. Serial 1:10 dilutions of the bacterial suspension were made, ranging from 10^−1 to 10^−7.
HeLa monolayers (on coverslips) were inoculated with 100 μl of the different dilutions of chlamydia (elementary bodies), in the presence or absence of test agent. The suramin compound was tested at 0.1, 1.0, 10, 100 and 1000 μg/ml. After 1 hour, the monolayers were washed to remove free chlamydia and test agent, and they were incubated for 48 hours.
Medium was removed, and the HeLa monolayers were fixed in methanol, washed, and treated with Kallsted Chlamydia Culture Confirmation fluorescein-conjugated Monoclonal Antibody. Reaction of labeled antibody with the cells was carried out for 30 minutes at room temperature (i.e., 25° C.) (no light) in a humidified chamber. The cells were washed with water; a drop of mounting medium is placed on a glass slide, and the coverslip was applied. Inclusions due to chlamydial infection were visualized with a fluorescent microscope as green fluorescence. Data was reported as the number of inclusion forming units per ml of undiluted chlamydial titer, and were adjusted to control values of 2.6×10^7 IFU/ml for control cultures (no test agent) in each experiment. […] After logarithmic transformation of all data, dose-response curves were created with curve-fitting (TableCurve 2D, version 3.02; Jandel Scientific) software.

[6] = test system: sperm; experiment: Sperm viability, membrane integrity (HOST); format: cell-based
Protocol: Viability of sperm was assessed by a sperm membrane integrity evaluation as described in Jeyendran R. S. et al., J. Reprod. Fertil., 70: 219-28 (1984). Aliquots of sperm samples were incubated with suramin or N-9 test compounds. The reaction was terminated by the addition of 1.5 mL Ham's F10. Sperm were centrifuged and the pellet was resuspended in 200 μL of medium. Sperm viability was assessed by placing 100 μL of the sperm suspension in 900 μL of hypo-osmotic swelling test (HOST) medium for 30 min. Coiled sperm tails are a reflection of intact sperm membrane permeability and indicate viable sperm. A minimum of 200 cells were microscopically assessed from each sample.

[7] = test system: HIV-1 IIIB; experiment: Viral entry inhibition, cell-free HIV-1 IIIB, CD4/coreceptor expressing HeLa cells; format: cell-based; settings: Human immunodeficiency virus 1, IIIB

Cc1ccc(C(=O)Nc2ccc(S(=O)(=O)O)c3cc(S(=O)(=O)O)cc(S(=O)(=O)O)c23)cc1NC(=O)c1cccc(NC(=O)Nc2cccc(C(=O)Nc3cc(C(=O)Nc4ccc(S(=O)(=O)O)c5cc(S(=O)(=O)O)cc(S(=O)(=O)O)c45)ccc3C)c2)c1 [Suramin, 8,8′-(carbonylbis(imino-3,1-phenylenecarbonylimino(4-methyl-3,1-phenylene)carbonylimino))bis-1,3,5-naphthalene trisulfonic acid]
Potency, HIV-1 DC [1]: High
IC50 ([1]; Human immunodeficiency virus 1, BAL, Dendritic cell, read-out: IC50 dendritic cell (DC)/T lymphocyte model): 17 µg/mL (≈ 13.1 µM)
EC50 ([1]; DC infected with BaL cultured alone, read-out: EC50, Dendritic Cells (DC)): 56 ± 6 µg/mL (≈ 43.2 µM)
EC50 ([1]; DC infected with BaL with autologous T lymphocytes 1:1, read-out: EC50, DC + T Cells (1:1)): 57.5 ± 5 µg/mL
EC50 ([1]; DC infected with BaL with autologous T lymphocytes 1:10, read-out: EC50, DC + T Cells (1:10)): 17 ± 3 µg/mL
effect on PR ([2]; 0.1 mg/mL): did not significantly reduce PR
inhibition of pregnancy rates (PR) [2]: 86% inhibition
inhibition of pregnancy rates (PR) ([2]; listed as suramin sodium): 86%
inhibition, rabbit pretreated sperm ([2]; 5% in KY Jelly (Table 6)): 100% inhibition
prevention of pregnancies ([2]; five percent (5%) concentration): completely prevented pregnancies
Potency, Contraception, rabbit pretreated sperm (In-vitro mixing) ([2]; rabbit, in vivo): Moderate
Pregnancy Rate (%) ([2]; suramin 0.1 mg/ml): 83%
Implantation Sites (Mean ± SD) ([2]; suramin 0.1 mg/ml): 4.4 ± 0.8
Implantation Sites (Mean ± SD) ([2]; suramin 0.1 mg/ml, listed as suramin sodium): 4.4±0.8
Number of Pregnant Females/Total ([2]; suramin 0.1 mg/ml, sperm mixed 15 min before insemination): 5/6
Pregnancy Rate (%) ([2]; suramin 1.4 mg/ml): 14%
Number of Pregnant Females/Total ([2]; suramin 1.4 mg/ml (1 mM)): 1/7
Implantation Sites (Mean ± SD) ([2]; suramin 1.4 mg/ml): 1
Pregnancy Rate (%) ([2]; suramin 50 mg/ml): 0%
Number of Pregnant Females/Total ([2]; suramin 50 mg/ml (5%)): 0/7
effect on spontaneous and ionophore-induced acrosome reaction [3]: neither to stimulate spontaneous acrosome reaction (acrosomal loss) nor to block the Ca^2+ ionophore-induced reaction
Percentage of acrosome-reacted Sperm ([3]; Calcium-ionophore treatment (5 μM A23187): +): 31.4 ± 15.1%
Percentage of acrosome-reacted Sperm ([3]; Calcium-ionophore treatment (5 μM A23187): −): 5.28 ± 1.93%
Potency, Acrosome Reaction (ARIC) ([3]; induction or inhibition of acrosome reaction): None
cytotoxicity in comparative study [4]: the least cytotoxic of them all
Potency, Chlamydia (CT) Multiplication [5]: High
inhibition of CT multiplication ([5]; 2 mg/mL): inhibition was essentially complete
titer ([5]; 2 mg/mL, control titer 1×10^−5): 0.08×10^−5
inhibition at 100 µg/mL ([5]; Chlamydia trachomatis, read-out: inhibition of CT multiplication): 75%
inhibition at 2000 µg/mL ([5]; Chlamydia trachomatis, 2 mg/mL, read-out: inhibition of CT multiplication): 100%
IC50 ([5]; Chlamydia trachomatis, read-out: IC50 Chlamydia (CT) Multiplication): 28 µg/mL (≈ 21.6 µM)
sperm viability vs solvent-treated controls ([6]; 10-0.001 mg/mL): No significant differences
Potency, Viability (HOST) ([6]; time- and dose-dependent exp.): None
IC50 ([7]; HeLa, 2 h-incubation, read-out: IC50 against IIIB, viral entry assay): 18.5 µg/mL (≈ 14.3 µM)
IC50 ([7]; CD4/coreceptor expressing HeLa cells, incubation 2 hours, read-out: IC50, Cell-Free Strains IIIB): 18.5 µg/mL (≈ 14.3 µM)

— patent US8552064B2, “Suramin and derivatives thereof as topical microbicide and contraceptive” (Eastern Virginia Medical School, priority 2005, dated 2013)
